# Source: publication PMC7933434, “Entropy-driven binding of gut bacterial β-glucuronidase inhibitors ameliorates irinotecan-induced toxicity” (Communications Biology, 2021)
# Where “and” joins values, the source holds several entries; their conditions need not be identical. Equal entries are not always repeated.
# Columns and labels:
# [1] = target: BdGUS (Bifidobacterium dentium GUS) (Bifidobacterium dentium, UniProt D2Q7B1); assay: biochemical; parameters: GUS activity (hydrolysis rate of MUG) / 1/v: unit not given here
# Sequence of BdGUS (Bifidobacterium dentium GUS) (D2Q7B1 1-668): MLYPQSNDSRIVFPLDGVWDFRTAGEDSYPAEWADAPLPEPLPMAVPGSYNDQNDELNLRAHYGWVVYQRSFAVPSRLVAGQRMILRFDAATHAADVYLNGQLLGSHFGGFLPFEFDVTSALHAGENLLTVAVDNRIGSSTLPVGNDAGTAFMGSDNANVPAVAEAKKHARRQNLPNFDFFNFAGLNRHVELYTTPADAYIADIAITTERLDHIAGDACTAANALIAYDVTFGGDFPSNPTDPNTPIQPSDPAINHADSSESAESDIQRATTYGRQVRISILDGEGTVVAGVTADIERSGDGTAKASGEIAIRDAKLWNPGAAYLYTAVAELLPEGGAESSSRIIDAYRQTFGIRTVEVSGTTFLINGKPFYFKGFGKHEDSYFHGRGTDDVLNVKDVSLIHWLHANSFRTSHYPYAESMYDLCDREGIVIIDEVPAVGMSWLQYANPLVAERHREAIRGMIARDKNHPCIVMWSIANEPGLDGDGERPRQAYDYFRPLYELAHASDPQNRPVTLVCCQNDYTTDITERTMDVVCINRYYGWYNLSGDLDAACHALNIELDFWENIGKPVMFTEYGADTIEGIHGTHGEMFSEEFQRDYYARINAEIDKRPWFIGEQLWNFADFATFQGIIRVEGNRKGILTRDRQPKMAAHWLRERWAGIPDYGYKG
# HsGUS (human GUS) = target: T1, HsGUS (human GUS) (Homo sapiens, UniProt P08236); assay: GUS inhibition assay, hydrolysis of 4-methylumbelliferyl-β-glucuronide, HsGUS; format: biochemical; parameters: GUS activity (hydrolysis rate of MUG): unit not given here
# T1 construct: HsGUS was prepared as described[37]; made in house
# T1 sequence (P08236 23-651): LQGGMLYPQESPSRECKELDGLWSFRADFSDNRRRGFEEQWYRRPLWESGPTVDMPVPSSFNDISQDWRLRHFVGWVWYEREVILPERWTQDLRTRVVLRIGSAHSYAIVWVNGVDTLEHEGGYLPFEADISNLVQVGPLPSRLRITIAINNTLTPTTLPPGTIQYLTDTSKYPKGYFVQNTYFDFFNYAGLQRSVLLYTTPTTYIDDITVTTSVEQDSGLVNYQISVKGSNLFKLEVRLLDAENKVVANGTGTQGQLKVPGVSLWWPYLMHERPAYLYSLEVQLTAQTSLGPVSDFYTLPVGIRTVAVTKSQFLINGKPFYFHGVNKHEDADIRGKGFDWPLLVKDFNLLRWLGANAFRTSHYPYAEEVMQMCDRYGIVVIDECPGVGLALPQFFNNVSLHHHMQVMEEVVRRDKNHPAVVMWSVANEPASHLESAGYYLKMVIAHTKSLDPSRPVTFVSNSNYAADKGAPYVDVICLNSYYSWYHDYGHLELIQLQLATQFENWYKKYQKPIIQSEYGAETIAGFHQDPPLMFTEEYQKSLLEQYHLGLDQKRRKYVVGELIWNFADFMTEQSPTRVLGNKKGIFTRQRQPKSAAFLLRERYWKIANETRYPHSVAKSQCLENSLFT
# [2] = [Inhibitor 2] = 15 μM, [MUG] 0.375 mM
# [3] = [Inhibitor 2] = 15 μM, [MUG] 0.75 mM
# [4] = [Inhibitor 2] = 15 μM, [MUG] 1.5 mM
# [5] = [Inhibitor 2] = 15 μM, [MUG] 3 mM
# [6] = [Inhibitor 2] = 30 μM, [MUG] 0.375 mM
# [7] = [Inhibitor 2] = 30 μM, [MUG] 0.75 mM
# [8] = [Inhibitor 2] = 30 μM, [MUG] 1.5 mM
# [9] = [Inhibitor 2] = 30 μM, [MUG] 3 mM
smiles,measurement,setting,value
"CCC[C@@H]1NC[C@@H](O)[C@H](O)[C@H]1C(=O)O [Inhibitor 2, C6-propyl UIFG]",GUS activity (hydrolysis rate of MUG),"[1]; [Inhibitor 2] = 7.5 μM, [MUG] 3 mM",0.6574 and 0.6654 and 0.6962
same,1/v,[1]; [2],1.396 and 1.589 and 1.568
same,GUS activity (hydrolysis rate of MUG),[1]; [2],0.1599 and 0.1405 and 0.1424
same,1/v,[1]; [3],0.9143 and 0.8906 and 0.8101
same,GUS activity (hydrolysis rate of MUG),[1]; [3],0.2442 and 0.2507 and 0.2757
same,1/v,[1]; [4],0.5734 and 0.5628 and 0.516
same,GUS activity (hydrolysis rate of MUG),[1]; [4],0.3894 and 0.3968 and 0.4327
same,1/v,[1]; [5],0.4154 and 0.412 and 0.4013
same,GUS activity (hydrolysis rate of MUG),[1]; [5],0.5375 and 0.5419 and 0.5564
same,1/v,[1]; [6],2.375 and 2.7756 and 2.7044
same,GUS activity (hydrolysis rate of MUG),[1]; [6],0.09401 and 0.08045 and 0.08257
same,1/v,[1]; [7],1.493 and 1.508 and 1.184
same,GUS activity (hydrolysis rate of MUG),[1]; [7],0.1495 and 0.1481 and 0.1887
same,1/v,[1]; [8],0.8717 and 0.8385 and 0.8277
same,GUS activity (hydrolysis rate of MUG),[1]; [8],0.2562 and 0.2663 and 0.2698
same,1/v,[1]; [9],0.5634 and 0.5659 and 0.5111
same,GUS activity (hydrolysis rate of MUG),[1]; [9],0.3964 and 0.3946 and 0.4369
same,Ki,"HsGUS (human GUS); HsGUS, 50 mM sodium acetate pH 4.5, 37 °C",36.1 ± 7.5 µM
same,GUS activity (hydrolysis rate of MUG),"HsGUS (human GUS); [Inhibitor 2] =2 μM, [MUG] 0.1 mM",948.853 and 951.385
same,GUS activity (hydrolysis rate of MUG),"HsGUS (human GUS); [Inhibitor 2] =2 μM, [MUG] 0.2 mM",1632.03 and 1685.82
same,GUS activity (hydrolysis rate of MUG),"HsGUS (human GUS); [Inhibitor 2] =2 μM, [MUG] 0.4 mM",2642.25 and 2523.4
same,GUS activity (hydrolysis rate of MUG),"HsGUS (human GUS); [Inhibitor 2] =2 μM, [MUG] 0.6 mM",3352.21 and 3311.67
same,GUS activity (hydrolysis rate of MUG),"HsGUS (human GUS); [Inhibitor 2] =2 μM, [MUG] 0.8 mM",3926.69 and 3841.33
same,GUS activity (hydrolysis rate of MUG),"HsGUS (human GUS); [Inhibitor 2] =2 μM, [MUG] 1.2 mM",4682.68 and 4814.95
same,GUS activity (hydrolysis rate of MUG),"HsGUS (human GUS); [Inhibitor 2] =2 μM, [MUG] 1.6 mM",5075.17 and 5261.75
same,GUS activity (hydrolysis rate of MUG),"HsGUS (human GUS); [Inhibitor 2] =2 μM, [MUG] 2 mM",5616.94 and 5799.63
same,GUS activity (hydrolysis rate of MUG),"HsGUS (human GUS); [Inhibitor 2] =5 μM, [MUG] 0.1 mM",870.401 and 901.046
same,GUS activity (hydrolysis rate of MUG),"HsGUS (human GUS); [Inhibitor 2] =5 μM, [MUG] 0.2 mM",1774.12 and 1609.49
same,GUS activity (hydrolysis rate of MUG),"HsGUS (human GUS); [Inhibitor 2] =5 μM, [MUG] 0.4 mM",2566.62 and 2497.87
same,GUS activity (hydrolysis rate of MUG),"HsGUS (human GUS); [Inhibitor 2] =5 μM, [MUG] 0.6 mM",3244.91 and 3390.27
same,GUS activity (hydrolysis rate of MUG),"HsGUS (human GUS); [Inhibitor 2] =5 μM, [MUG] 0.8 mM",3688.45 and 3865.44
same,GUS activity (hydrolysis rate of MUG),"HsGUS (human GUS); [Inhibitor 2] =5 μM, [MUG] 1.2 mM",4481.74 and 4357.11
same,GUS activity (hydrolysis rate of MUG),"HsGUS (human GUS); [Inhibitor 2] =5 μM, [MUG] 1.6 mM",5234.04 and 5031.9
same,GUS activity (hydrolysis rate of MUG),"HsGUS (human GUS); [Inhibitor 2] =5 μM, [MUG] 2 mM",5683.23 and 5771.06
same,GUS activity (hydrolysis rate of MUG),"HsGUS (human GUS); [Inhibitor 2] =10 μM, [MUG] 0.1 mM",788.919 and 835.551
same,GUS activity (hydrolysis rate of MUG),"HsGUS (human GUS); [Inhibitor 2] =10 μM, [MUG] 0.2 mM",1388.11 and 1357.62
same,GUS activity (hydrolysis rate of MUG),"HsGUS (human GUS); [Inhibitor 2] =10 μM, [MUG] 0.4 mM",2139.7 and 2292.26
same,GUS activity (hydrolysis rate of MUG),"HsGUS (human GUS); [Inhibitor 2] =10 μM, [MUG] 0.6 mM",2815.06 and 3009.55
same,GUS activity (hydrolysis rate of MUG),"HsGUS (human GUS); [Inhibitor 2] =10 μM, [MUG] 0.8 mM",3419.24 and 3416.94
same,GUS activity (hydrolysis rate of MUG),"HsGUS (human GUS); [Inhibitor 2] =10 μM, [MUG] 1.2 mM",4195.01 and 4091.63
same,GUS activity (hydrolysis rate of MUG),"HsGUS (human GUS); [Inhibitor 2] =10 μM, [MUG] 1.6 mM",5141.39 and 4873.96
same,GUS activity (hydrolysis rate of MUG),"HsGUS (human GUS); [Inhibitor 2] =10 μM, [MUG] 2 mM",5569.48 and 4956.18
same,GUS activity (hydrolysis rate of MUG),"HsGUS (human GUS); [Inhibitor 2] =20 μM, [MUG] 0.1 mM",633.046 and 650.421
same,GUS activity (hydrolysis rate of MUG),"HsGUS (human GUS); [Inhibitor 2] =20 μM, [MUG] 0.2 mM",1058.97 and 1051.89
same,GUS activity (hydrolysis rate of MUG),"HsGUS (human GUS); [Inhibitor 2] =20 μM, [MUG] 0.4 mM",1746.1 and 1806.97
same,GUS activity (hydrolysis rate of MUG),"HsGUS (human GUS); [Inhibitor 2] =20 μM, [MUG] 0.6 mM",2323.32 and 2357.04
same,GUS activity (hydrolysis rate of MUG),"HsGUS (human GUS); [Inhibitor 2] =20 μM, [MUG] 0.8 mM",2744.58 and 2819.54
same,GUS activity (hydrolysis rate of MUG),"HsGUS (human GUS); [Inhibitor 2] =20 μM, [MUG] 1.2 mM",3443.09 and 3077.07
same,GUS activity (hydrolysis rate of MUG),"HsGUS (human GUS); [Inhibitor 2] =20 μM, [MUG] 1.6 mM",3957.48 and 3836.46
same,GUS activity (hydrolysis rate of MUG),"HsGUS (human GUS); [Inhibitor 2] =20 μM, [MUG] 2 mM",4613.38 and 4482.85
same,GUS activity (hydrolysis rate of MUG),"HsGUS (human GUS); [Inhibitor 2] =40 μM, [MUG] 0.1 mM",425.121 and 430.469
same,GUS activity (hydrolysis rate of MUG),"HsGUS (human GUS); [Inhibitor 2] =40 μM, [MUG] 0.2 mM",709.381 and 742.235
same,GUS activity (hydrolysis rate of MUG),"HsGUS (human GUS); [Inhibitor 2] =40 μM, [MUG] 0.4 mM",1260.88 and 1281.33
same,GUS activity (hydrolysis rate of MUG),"HsGUS (human GUS); [Inhibitor 2] =40 μM, [MUG] 0.6 mM",1728.03 and 1805.44
same,GUS activity (hydrolysis rate of MUG),"HsGUS (human GUS); [Inhibitor 2] =40 μM, [MUG] 0.8 mM",2092.2 and 2090.09
same,GUS activity (hydrolysis rate of MUG),"HsGUS (human GUS); [Inhibitor 2] =40 μM, [MUG] 1.2 mM",2609.86 and 2615.59
same,GUS activity (hydrolysis rate of MUG),"HsGUS (human GUS); [Inhibitor 2] =40 μM, [MUG] 1.6 mM",3152.02 and 3056.96
same,GUS activity (hydrolysis rate of MUG),"HsGUS (human GUS); [Inhibitor 2] =40 μM, [MUG] 2 mM",3549.78 and 3510.91
same,GUS activity (hydrolysis rate of MUG),"HsGUS (human GUS); [Inhibitor 2] =75 μM, [MUG] 0.1 mM",269.697 and 248.688
same,GUS activity (hydrolysis rate of MUG),"HsGUS (human GUS); [Inhibitor 2] =75 μM, [MUG] 0.2 mM",469.532 and 449.551
same,GUS activity (hydrolysis rate of MUG),"HsGUS (human GUS); [Inhibitor 2] =75 μM, [MUG] 0.4 mM",868.241 and 807.629
same,GUS activity (hydrolysis rate of MUG),"HsGUS (human GUS); [Inhibitor 2] =75 μM, [MUG] 0.6 mM",1207.03 and 1153.12
same,GUS activity (hydrolysis rate of MUG),"HsGUS (human GUS); [Inhibitor 2] =75 μM, [MUG] 0.8 mM",1515.37 and 1395.3
same,GUS activity (hydrolysis rate of MUG),"HsGUS (human GUS); [Inhibitor 2] =75 μM, [MUG] 1.2 mM",1853.64 and 1948.04
same,GUS activity (hydrolysis rate of MUG),"HsGUS (human GUS); [Inhibitor 2] =75 μM, [MUG] 1.6 mM",2229.7 and 2415.81
same,GUS activity (hydrolysis rate of MUG),"HsGUS (human GUS); [Inhibitor 2] =75 μM, [MUG] 2 mM",2629.91 and 2703.96
